One experiment addresses protein kinase C. As to the kind of experiment: Inhibition of protein kinase C (PK-C): in vitro method, 32P incorporation into H1 histone. In kind it is biochemical, rat. On the procedure: b) Inhibition of protein kinase C (PK-C): in vitro method.
However, to the extracts was additionally added 1 mM phenylmethanesulphonyl chloride, 20 μg./ml. leupeptin and 2 μg./ml. aprotinin. […] 1,2-s,n-diolein. The reaction time was 10 minutes at 32° C. The enzyme reaction was stopped by the addition of 1 ml. 20% trichloroacetic acid (w/v). The protein was precipitated out on Whatman GF/F filter paper and counted with the help of a liquid scintillation counter.
Quercetin was solubilised in dimethyl sulphoxide (DMSO). For the batch mixing, the solution in DMSO was made up to a DMSO end concentration of 1%. An equivalent amount of pure DMSO was added to the control groups. The influence of quercetin on the cell multiplication was investigated by the addition of the active material in DMSO to the culture medium up to an end concentration of 0.1%. The cells were cultured in the presence of the active material for 48 hours. The control group only received pure DMSO.

A further experiment deals with Walker carcinoma cells. As to the kind of experiment: Inhibition of multiplication of Walker cells (cell proliferation), single active material or combination, Chou and Talalay analysis. In kind it is cell-based, rat.
Experiment [1] relates to Meth A-fibrosarcoma cells. As to the kind of experiment: [3H]-Thymidine incorporation, inhibition of tumour cell proliferation. In kind it is cell-based. Particulars: Table 2; ilmofosin alone; read-out: IC50, inhibition of tumour cell proliferation, single active material. The protocol:
b) [3H]-Thymidine incorporation.
The cytostatic or cytotoxic effect of the active materials or active material combinations on Meth A-fibrosarcoma cells was investigated in vitro on the basis of the reduced incorporation of [3H]-thymidine. The cells were suspended in DMEM, 10% FCS, 50 μM 2-mercaptoethanol, 100 U/ml. penicillin and 100 μg./ml. streptomycin up to an end concentration of 5×10^4 /ml. in the absence of the active materials. The active materials were added to the cells in an end volume of 20 μl. Per concentration, 6 cultures of 0.2 ml. were used and incubated in microtitre plates in a moist atmosphere. The cultures were pulsed for 3 hours with 1 μCi […] [methyl-^3 H]-thymidine(specific activity 5 Ci/mmol). The samples were subsequently collected and washed several times. The filter plates used were dried and transferred to scintillation test tubes. The radio-active incorporation was measured by the addition of Rotiscint.
The IC50 values for a combination of ilmofosin with CDDP or doxorubicin were determined in the manner described above in Example 7b).
(In general: Uptake of a labelled nucleoside into DNA is a usual measure of proliferation.)

Where [2] appears, read: Table 1, 50% inhibition of the protein kinase C, read-out: inhibition of the protein kinase C IC50.
Setting [3] is: protein kinase C enriched from Walker cells, 10 minutes at 32° C., pH 7.4, read-out: IC50, inhibition of protein kinase C (Examples 2-6).
Where [4] appears, read: Rattus norvegicus, 48 h, read-out: IC50 cell proliferation.
[5] abbreviates: Rattus norvegicus, 48 h, read-out: IC50 cell proliferation in combination with cis-DDP.
[6] abbreviates: combination of the inhibitor with cis-DDP, 48 hours; method of Chou and Talalay.
Setting [7] is: Rattus norvegicus, 48 h; read-out: IC50 cell proliferation in combination with cis-DDP.

Read-outs that look alike come from different tables or passages of the source. Where only a bound is given, the exact number is not on record here.

Description for Walker carcinoma cells: Dose-action curves for individual active materials or active material combinations were obtained by the addition of corresponding active materials to a suspension of Walker cells (10^5 cells/ml.). After an incubation time of 48 hours, the cells were counted with the help of an electronic counter (Coulter Electronics, Luton, U.K.). The multiplication of the cells (M) was calculated according to the following formula:
in which C stands for the untreated control cells, T signifies the number of treated cells and the indices 0 and t indicate the number of the cells at the time point 0 and after 48 h.
The data used for the calculation originated from at least three different experiments.

`O=c1c(O)c(-c2ccc(O)c(O)c2)oc2cc(O)cc(O)c12` [quercetin, 3,3',4',5,7-pentahydroxyflavone]: the IC50 turned out to be 25 µM at protein kinase C (setting [2]), 25 µM at protein kinase C (setting [3]), 23 µM in the experiment on Walker carcinoma cells (setting [4]) and 3.8 µM in the experiment on Walker carcinoma cells (setting [5]). Also, the “nature of the activity” value with Walker carcinoma cells (setting [6]) is reported as “synergism”.
For `CC/C(=C(\c1ccccc1)c1ccc(OCCN(C)C)cc1)c1ccccc1` [tamoxifen], the “nature of the activity” value with Walker carcinoma cells (setting [6]) is “synergism”.
As for `CCCCCCCCCCCCCCCCCCOCC(COP(=O)([O-])OCC[N+](C)(C)C)OC` (stereo not drawn) [ET-18-OCH3, 4-hydroxy-7-methoxy-N,N,N-trimethyl-3,5,9-trioxa-4-phosphaheptacosan-1-aminium 4-oxide], the IC50 was 1.7 µM with Walker carcinoma cells (setting [7]) and 5.8 µM in the experiment with Walker carcinoma cells (Rattus norvegicus; Table 1; single active material, 48 hours; read-out: IC50 cell proliferation).
On to `CN[C@@H]1C[C@H]2O[C@@](C)([C@@H]1OC)n1c3ccccc3c3c4c(c5c6ccccc6n2c5c31)C(=O)NC4` [staurosporin], for which the IC50 amounted to 0.4 µM in the experiment with Walker carcinoma cells (setting [4]) and 0.004 µM in the experiment on Walker carcinoma cells (setting [5]). In the experiment with Walker carcinoma cells (setting [6]), the “nature of the activity” value is on record as “synergism”.
With `CCCCCCCCCCCCCCCCSCC(COC)COP(=O)([O-])OCC[N+](C)(C)C` (stereo not drawn) [ilmofosin], the IC50 is 0.56 µM on protein kinase C (setting [2]), 20 µM on protein kinase C (setting [3]), 2 µM in the experiment with Walker carcinoma cells (setting [7]) and 1.06 µg/mL in experiment [1]. Moreover, in the experiment on Walker carcinoma cells (setting [6]), the “nature of the activity” value was “synergism”.
Regarding `N.N.[Cl][Pt][Cl]` [cis-DDP, cis-diammine-dichloroplatinum (II)], the IC50 on protein kinase C (setting [2]) is > 1000 µM; in the experiment with Walker carcinoma cells (Table 1; single active material, 48 hours; read-out: IC50 cell proliferation), 0.23 µM.

(Values after patent US5770593A, “Method of determining a pharmaceutical combination preparations for use in anti-neoplastic therapy” (Boehringer Mannheim GmbH, priority 1988, dated 1998).)
